26 compounds from patent US20030229053A1, “Compounds and methods for the treatment or prevention of flavivirus infections” (Shire BioChem Inc., priority 2001, published 2003) can be followed below.

For orientation: IC50 means the concentration that gives 50% inhibition.

Structures are written as SMILES.

The target in the first experiment is HCV NS5B RNA-dependent RNA polymerase (Hepatitis C virus genotype 1b, UniProt P26663). Nature of the experiment: In vitro RNA-dependent RNA polymerase assay (Assay 1), polyA/oligo dT, TCA precipitation. Type of experiment: biochemical.
Sequence of HCV NS5B RNA-dependent RNA polymerase (P26663 2420-3010 limits assumed): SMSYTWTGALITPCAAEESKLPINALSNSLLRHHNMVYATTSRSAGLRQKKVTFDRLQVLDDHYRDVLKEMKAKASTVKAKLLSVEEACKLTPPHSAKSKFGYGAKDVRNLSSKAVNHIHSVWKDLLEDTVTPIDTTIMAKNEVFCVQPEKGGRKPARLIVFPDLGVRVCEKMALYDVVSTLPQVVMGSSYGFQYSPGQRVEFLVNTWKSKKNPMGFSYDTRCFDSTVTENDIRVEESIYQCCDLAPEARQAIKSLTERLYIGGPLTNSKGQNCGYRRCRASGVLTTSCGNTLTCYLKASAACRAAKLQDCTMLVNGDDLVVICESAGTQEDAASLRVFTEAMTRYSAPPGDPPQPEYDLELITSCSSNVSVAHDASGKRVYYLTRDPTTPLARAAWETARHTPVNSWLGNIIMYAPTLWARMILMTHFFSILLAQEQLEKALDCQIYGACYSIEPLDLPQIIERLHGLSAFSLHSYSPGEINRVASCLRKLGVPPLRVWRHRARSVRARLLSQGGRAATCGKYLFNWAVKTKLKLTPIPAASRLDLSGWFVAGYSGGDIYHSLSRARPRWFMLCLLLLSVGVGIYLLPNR
Conditions: not given
How it is done: Purification of Recombinant NS5B Using Fast Protein Liquid Chromatography (FPLC):
Soluble NS5B protein in the S3 fraction was diluted to lower the NaCl concentration to 300 mM, then it incubated batchwise with DEAE sepharose beads (Amersham-Pharmacia) for 2 hrs at 4° C., as described by Behrens et al. (1996). Unbound material was cleared by centrifugation for 15 min at 4° C., at 25,000 rpm using a SW41 rotor (Beckman). The supernatant was further diluted to lower the NaCl concentration to 200 mM and subsequently loaded, with a flow rate of 1 ml/min, on a 5 ml HiTrap® heparin column (Amersham-Pharmacia) connected to an FPLC® system (Amersham-Pharmacia). Bound proteins were eluted in 1 ml fractions, using a continuous NaCl gradient of 0.2 to 1 M, over a 25 ml volume. NS5B-containing fractions were identified by sodium dodecyl sulfate polyacrylamide gel electrophoresis (SDS-PAGE), followed by western blotting using the anti-NS5B antiserum at a dilution of 1:2000. Positive fractions were pooled and the elution buffer was exchanged against a 50 mM NaPO4 pH 7.0, 20% glycerol, 0.5% triton X-100 and 10 mM DTT, using a PD-10 column (Amersham-Pharmacia). The sample was then loaded onto a 1 ml HiTrap® SP column (Amersham-Pharmacia), with a flow rate of 0.1 ml/min. Bound proteins were eluted using a continuous 0 to 1 M NaCl gradient over a 15 ml volume. Eluted fractions were analyzed by SDS-PAGE and western blotting. Alternatively, proteins were visualized, following SDS-PAGE, by silver staining using the Silver Stain Plus kit (BioRad) as described by the manufacturer. […]
In vitro RNA-dependent RNA Polymerase Assays Used to Evaluate Biaryl Analogues (Assay 1):
RdRp assays were conducted using the homopolymeric template/primer polyA/oligo dT. All RdRp reactions were performed in a total volume of 50 μl, and in a basic buffer consisting of 20 mM Tris-HCl pH 7.5, 1 mM DTT, 50 mM NaCl, 5 mM MgCl2, 0.5 μCi […] (3000 Ci/mmol), 15 μM cold UTP and 20 U RNasin (Promega). Standard HCV RdRp reactions contained 200 ng of purified NS5B protein. PolyA RNAs (Amersham-Pharmacia) was resuspended at 400 ng/μl. The primer oligodT15 (Canadian life technologies) was diluted to a concentration of […] (7.6 ng/μl). Templates and primers were mixed volume to volume, denatured at 95° C. for 5 min and annealed at 37° C. for 10 min. Following a two hour incubation at 22° C., reactions were stopped by the addition of 100 μg of sonicated salmon sperm DNA (Life Technologies) and 1 ml of 10% trichloroacetic acid-0.5% tetrasodium pyrophosphate (TCA-PPi). Nucleic acids were precipitated at 4° C. for 30 min after which samples were filtered on GF/C glass microfiber filters (Millipore). Membranes were subsequently washed with 25 ml of a 1% TCA-0.1% PPi solution, then air dried. Incorporated radioactivity was quantified using a liquid scintillation counter (1450-Microbeta, Wallac). Results are shown in Table 1, in the column indicated as Assay 1.
As to `O=C(O)[C@H](Cc1ccccc1)N(Cc1cccc(Br)c1)C(=O)c1ccc(Cl)cc1Cl` [compound #9, (2s)-2-[(3-Bromo-benzyl)-(2,4-dichloro-benzoyl)-amino]-3-phenyl-propionic acid], the IC50 was less than 5 µM.

On to `O=C(O)[C@H](Cc1ccccc1)N(Cc1cccc(Br)c1)C(=O)c1ccc(Cl)cc1` [compound #15, (2s)-2-[(3-Bromo-benzyl)-(4-chloro-benzoyl)-amino]-3-phenyl-propionic acid], for which the IC50 lay in the range of 5 to 20 µM.

Still in this experiment, the particulars now being: polyA/oligo dT template/primer, 200 ng NS5B, 2 h at 22° C.; read-out: RNA pol Assay 1 IC50 (μm).
In the case of `O=C(O)C(Cc1ccccc1)N(Cc1ccc(-c2cc3ccccc3o2)cc1)C(=O)c1ccc(Cl)cc1Cl` (stereo in doubt) [compound #4, (2s)-2-[(4-Benzofuran-2-yl-benzyl)-(2,4-dichloro-benzoyl)-amino]-3-phenyl-propionic acid], the IC50 is less than 5 µM.

For the compound `COc1cc(C)c(S(=O)(=O)N(Cc2ccc(-c3cc4ccccc4o3)cc2)C(Cc2ccccc2)C(=O)O)c(C)c1C` (stereo in doubt) [compound #6, (2s)-2-[(4-Benzofuran-2-yl-benzyl)-(4-methoxy-2,3,6-trimethyl-benzenesulfonyl)-amino]-3-phenyl-propionic acid], the half-inhibitory concentration (IC50) was less than 5 µM.

As for `C=CCN(C(=O)c1ccc(Cl)cc1I)C(Cc1ccccc1)C(=O)O` (centres unmarked) [Compound #27, 2-[Allyl-(4-chloro-2-iodo-benzoyl)-amino]-3-phenyl-propionic acid], the half-maximal inhibitory concentration (IC50) is 5 to 20 µM.

As for `O=C(O)CC(c1cccs1)N(Cc1ccc(-c2cccs2)cc1)C(=O)Nc1cc(Cl)nc(Cl)c1` (centres unmarked) [compound #1, 3-[3-(2,6-Dichloro-pyridin-4-yl)-1-(4-thiophen-2-yl-benzyl)-ureido]-3-thiophen-2-yl-propionic acid], the half-maximal inhibitory concentration (IC50) lay in the range of 5 to 20 µM.

Take `O=C(O)[C@H](Cc1ccccc1)N(Cc1ccc(-c2nccs2)cc1)C(=O)c1ccc(Cl)cc1Cl` [compound #2, (2s)-2-[(2,4-Dichloro-benzoyl)-(4-thiazol-2-yl-benzyl)-amino]-3-phenyl-propionic acid]: the IC50 was less than 5 µM.

For the compound `O=C(O)[C@H](Cc1ccccc1)N(Cc1ccc(Br)cc1)C(=O)c1ccc(Cl)cc1Cl` [compound #3, (2s)-2-[(4-Bromo-benzyl)-(2,4-dichloro-benzoyl)-amino]-3-phenyl-propionic acid], the half-inhibitory concentration (IC50) is less than 5 µM.

For the compound `COc1cc(C)c(S(=O)(=O)N(Cc2ccc(-c3cc4ccccc4o3)cc2)[C@@H](Cc2ccccc2)C(=O)O)c(C)c1C` [compound #5, (2s)-2-[(4-Benzofuran-2-yl-benzyl) -(4-methoxy-2,3,6-trimethyl-benzenesulfonyl)-amino]-3-phenyl-propionic acid], the IC50 is less than 5 µM.

As for `COc1cc(C)c(S(=O)(=O)N(Cc2cccc(-c3cc4ccccc4o3)c2)[C@@H](Cc2ccccc2)C(=O)O)c(C)c1C` [compound #7, (2s)-2-[(3-Benzofuran-2-yl-benzyl)-(4-methoxy-2,3,6-trimethyl-benzenesulfonyl)-amino]-3-phenyl-propionic acid], the IC50 was less than 5 µM.

Turning to `CCOC(=O)CC(c1cccs1)N(Cc1ccc(I)cc1)S(=O)(=O)c1c(C)cc(OC)c(C)c1C` (centres unmarked) [compound #8, 3-[(4-Iodo-benzyl)-(4-methoxy-2,3,6-trimethyl-benzenesulfonyl)-amino]-3-thiophen-2-yl-propionic acid ethyl ester], the IC50 was 5 to 20 µM.

As for `O=C(O)[C@H](Cc1ccccc1)N(Cc1cccc(Br)c1)C(=O)c1ccccc1Cl` [compound #10, (2s)-2-[(3-Bromo-benzyl)-(2-chloro-benzoyl)-amino]-3-phenyl-propionic acid], the IC50 is more than 20 µM.

With `O=C(O)[C@H](Cc1ccccc1)N(Cc1cccc(-c2cc3ccccc3o2)c1)C(=O)c1ccc(Cl)cc1Cl` [compound #11, (2s)-2-[(3-Benzofuran-2-yl-benzyl)-(2,4-dichloro-benzoyl)-amino]-3-phenyl-propionic acid], the concentration for half-maximal inhibition (IC50) was 5 to 20 µM.

`O=C(O)[C@H](Cc1ccccc1)N(Cc1ccc(I)cc1)C(=O)c1ccc(Cl)cc1Cl` [compound #12, (2s)-2-[(2,4-Dichloro-benzoyl)-(4-iodo-benzyl)-amino]-3-phenyl-propionic acid]: the IC50 lay in the range of 5 to 20 µM.

Regarding `COc1cc(C)c(S(=O)(=O)N(Cc2cccc(I)c2)[C@@H](Cc2ccccc2)C(=O)O)c(C)c1C` [compound #13, (2s)-2-[(3-Iodo-benzyl)-(4-methoxy-2,3,6-trimethyl-benzenesulfonyl)-amino]-3-phenyl-propionic acid], the 50% inhibitory concentration (IC50) fell in the range of 5 to 20 µM.

In the case of `COc1cc(C)c(S(=O)(=O)N(Cc2ccc(Br)cc2)[C@@H](Cc2ccccc2)C(=O)O)c(C)c1C` [compound #14, (2s)-2-[(4-Bromo-benzyl)-(4-methoxy-2,3,6-trimethyl-benzenesulfonyl)-amino]-3-phenyl-propionic acid], the IC50 fell in the range of 5 to 20 µM.

In the case of `COc1cc(C)c(S(=O)(=O)N(Cc2ccc(I)cc2)[C@@H](Cc2ccccc2)C(=O)O)c(C)c1C` [compound #16, (2s)-2-[(4-Iodo-benzyl)-(4-methoxy-2,3,6-trimethyl-benzenesulfonyl)-amino]-3-phenyl-propionic acid], the 50% inhibitory concentration (IC50) fell in the range of 5 to 20 µM.

For `COc1cc(C)c(S(=O)(=O)N(Cc2cccc(Br)c2)[C@@H](Cc2ccccc2)C(=O)O)c(C)c1C` [compound #17, (2s)-2-[(3-Bromo-benzyl)-(4-methoxy-2,3,6-trimethyl-benzenesulfonyl)-amino]-3-phenyl-propionic acid], the IC50 was in the range of 5 to 20 µM.

Take `COC(=O)c1ccc(-c2ccc(CN([C@@H](Cc3ccccc3)C(=O)O)S(=O)(=O)c3c(C)cc(OC)c(C)c3C)cc2)o1` [compound #18, (2s)-5-(4-{[(1s-1-Carboxy-2-phenyl-ethyl)-(4-methoxy-2,3,6-trimethyl-benzenesulfonyl)-amino]-methyl}-phenyl)-furan-2-carboxylic acid methyl ester]: the half-inhibitory concentration (IC50) was more than 20 µM.

Turning to `O=C(O)[C@H](Cc1ccccc1)N(Cc1cccc(Br)c1)C(=O)c1ccc(Cl)c(Cl)c1` [compound #19, (2s)-2-[(3-Bromo-benzyl)-(3,4-dichloro-benzoyl)-amino]-3-phenyl-propionic acid], the 50% inhibitory concentration (IC50) was more than 20 µM.

Consider `O=C(O)[C@H](Cc1ccccc1)N(Cc1cccc(Br)c1)S(=O)(=O)c1ccc(Cl)cc1Cl` [compound #20, (2s)-2-[(3-Bromo-benzyl)-(2,4-dichloro-benzenesulfonyl)-amino]-3-phenyl-propionic acid], for which the concentration for half-maximal inhibition (IC50) is more than 20 µM.

As for `O=C(O)[C@H](Cc1cn(Cc2ccccc2)cn1)N(Cc1cccc(Br)c1)C(=O)c1ccc(Cl)cc1Cl` [compound #21, (2s)-3-(1-Benzyl-1h-imidazol-4-yl)-2-[(3-bromo-benzyl)-(2,4-dichloro-benzoyl)-amino]-propionic acid], the concentration for half-maximal inhibition (IC50) lay in the range of 5 to 20 µM.

As to `O=C(O)[C@H](Cc1ccccc1)N(Cc1cccc(Br)c1)C(=O)Cc1ccc(Cl)cc1Cl` [compound #22, (2s)-2-{(3-Bromo-benzyl)-[(2,4-dichloro-phenyl)-acetyl]-amino}-3-phenyl-propionic acid], the half-maximal inhibitory concentration (IC50) fell in the range of 5 to 20 µM.

As to `COC(=O)c1ccc(-c2ccc(CN([C@@H](Cc3ccccc3)C(=O)O)S(=O)(=O)c3c(C)cc(OC)c(C)c3C)cc2)s1` [compound #23, (2s)-5-(4-{[(1s-1-Carboxy-2-phenyl-ethyl)-(4-methoxy-2,3,6-trimethyl-benzenesulfonyl)-amino]-methyl}-phenyl)-thiophene-2-carboxylic acid methyl ester], the IC50 is more than 20 µM.

For the compound `COc1cc(C)c(S(=O)(=O)N(Cc2ccccc2Br)[C@@H](Cc2ccccc2)C(=O)O)c(C)c1C` [compound #24, (2s)-2-[(2-Bromo-benzyl)-(4-methoxy-2,3,6-trimethyl-benzenesulfonyl)-amino]-3-phenyl-propionic acid], the IC50 is 5 to 20 µM.

As for `Cc1ccc(C(=O)N(Cc2cccc(Br)c2)[C@@H](Cc2ccccc2)C(=O)O)c(C)c1` [compound #28, (2s)-2-[(3-Bromo-benzyl)-(2,4-dimethyl-benzoyl)-amino]-3-phenyl-propionic acid], the concentration for half-maximal inhibition (IC50) is less than 5 µM.
